The results in this text go back to article PMC12447755, “β-Lactamase cleavable antimicrobial peptide–drug conjugates” (Chemical Science, 2025).

≈ marks a conversion by molar mass, not a printed value. Read-outs that look alike come from different tables or passages of the source.

For test [1], the system named is P. aeruginosa strain PA14. To be noted: Table S5.
Test [2] relates to P. aeruginosa strain PA14. Nature of the test: microbe, parasite or virus in culture. To be noted: Pseudomonas aeruginosa.
Test [3] relates to Enterococcus faecalis ATCC29212. Nature of the test: microbe, parasite or virus in culture. To be noted: ATCC29212, 16 h.
Test [4] deals with Serratia marcescens ATCC39006. Nature of the test: microbe, parasite or virus in culture. To be noted: ATCC39006, 16 h.
The subject of test [5] is P. aeruginosa strain PAO1.
Another test has as its system Escherichia coli DH5a. Nature of the test: microbe, parasite or virus in culture. The note with it: 16 h.
Test [6] deals with P. aeruginosa strain PAO1. Nature of the test: microbe, parasite or virus in culture. The note with it: Pseudomonas aeruginosa, PAO1, 16 h, read-out: MIC for PAO1.

On to `O=C(O)c1cn(C2CC2)c2cc(N3CCNCC3)c(F)cc2c1=O` [Ciprofloxacin, ciprofloxacin], for which the “PA14 MIC” value in test [1] was found to be 0.0625 µg/mL. The MIC is 0.0625 µg/mL in test [2] (PA14, 16 h, read-out: MIC for PA14); 0.19 µM in test [2] (PA14, read-out: MIC for PA14); 0.5 µg/mL (≈ 1.51 µM) in test [3]; 0.0625 µg/mL (≈ 0.189 µM) in test [4]; 0.0078 µg/mL (≈ 0.0235 µM) in the test on Escherichia coli DH5a; 0.125 µg/mL (≈ 0.377 µM) in test [6]. Moreover, the “MIC for PAO1” value in test [5] (Table 3, data combined from multiple experiments, standard medium) was determined as 0.38 µM. The “PAO1 MIC” value in test [5] (Table S5, altered linking region between peptide and cephalosporin) amounted to 0.125 µg/mL.
